The test system of assay [1] is S. aureus USA300∆pbp4. In words: MIC testing, strain USA300∆pbp4. It is filed as cell-based, Staphylococcus aureus. Conditions: for MIC: Staphylococcus aureus, USA300, read-out: Minimum inhibitory concentration. The procedure: (§1) The approach used was to initially search for compounds that reverse the antibiotic resistance profile of wild type cells to that of a pbp4 mutant. To define screening conditions three strains were employed, a wild type USA300 MRSA strain, an isogenic pbp4 deletion strain, and a complemented strain harboring a plasmid wildtype pbp4 copy. The antibiotic susceptibility profile of each strain was measured to determine the magnitude with which PBP4 affects resistance to various antibiotics (Table 1). […]. We anticipated that the greater dynamic range of the latter could provide a means to reliably screen for agents that inhibit PBP4 function. […].
(§2) S. aureus strain USA300 is a predominant cause of U.S. community-associated MRSA infections, whereas strain COL is a commonly studied hospital-associated MRSA strain. The S. aureus USA300 pbp4-null strain (USA300Δpbp4) and PBP4 complementation strain (USA300∆pbp4 pPBP4) have been previously described. Strain COLn is a laboratory derived tetracycline susceptible derivative of COL, whereas COLnex is a methicillin susceptible COLn derivative that has been cured of SCCmec thereby removing the mecA, which encodes PBP2a, and has been previously described. Strain CRB is a well-studied MRSA COLnex derivative that contains two amino acid substitutions (E183A and F241R) near the PBP4 active site and a 36-bp duplication 290-bp upstream of the pbp4 open reading frame leading to 20–40-fold overexpression of the gene. All strains were grown in Mueller Hinton (MH) broth at 37 °C, as indicated. Penicillin, streptomycin, ciprofloxacin, mupirocin, meropenem, and mitomycin C were purchased from Fisher Scientific (Waltham, MA, USA), whereas ceftobiprole was obtained from MedChemExpress LLC (Monmouth Junction, NJ, USA). The 30,000-member […]-EXP small molecule chemical library (Blocks 3–5) used in these studies was purchased from ChemBridge Corporation (San Diego, CA, USA).

The test system of assay [2] is S. aureus USA300. As to the kind of experiment: Minimum inhibitory concentration (MIC) testing, strain USA300. It is filed as cell-based, Staphylococcus aureus. To be noted: for MIC: Staphylococcus aureus, USA300, read-out: Minimum inhibitory concentration; for Fold increase in resistance provided by PBP4: USA300 versus USA300∆pbp4 MIC; for Minimum inhibitory concentration: strain USA300. The procedure: as §1, §2

The test system of assay [3] is S. aureus CRB. As to the kind of experiment: MIC testing, strain CRB (PBP4 overproducer). To be noted: for MIC: Staphylococcus aureus, read-out: Minimum inhibitory concentration, strain CRB. It is filed as cell-based, Staphylococcus aureus. Here is the method: (§3) To further evaluate their potential PBP4 inhibitor activity, prioritized compounds were tested for their ability to reverse PBP4 mediated antibiotic resistance in another S. aureus background using three isogenic strains that became available during our study (generous gift from Dr. S. Chatterjee; University of Maryland). These strains included: (1) COLnex, which is a methicillin susceptible strain, (2) CRB, a methicillin/ceftobiprole-resistant strain of COLnex that overproduces PBP4, and (3) CRB∆pbp4, a methicillin susceptible strain of CRB lacking the pbp4 gene.
as §2

Assay [4] concerns S. aureus COLnex. In words: MIC testing, strain COLnex. To be noted: Staphylococcus aureus, read-out: Minimum inhibitory concentration. It is filed as cell-based. Here is the method:
as §3, §2

Assay [5] relates to S. aureus CRB∆pbp4. In words: MIC testing, strain CRB∆pbp4. It is filed as cell-based. Conditions: Staphylococcus aureus, read-out: Minimum inhibitory concentration. Here is the method:
as §3, §2

Assay [6] has as its system S. aureus USA300∆pbp4 pPBP4. As to the kind of experiment: microbe, parasite or virus in culture. It is filed as cell-based. To be noted: Staphylococcus aureus, USA300, read-out: Minimum inhibitory concentration.
Assay [7] addresses recombinant PBP4 (Bacillus subtilis, UniProt P40750). In words: Gel electrophoresis BOCILLIN FL labeling of PBP4. The class given is binding. To be noted: for Effect of preincubation on PBP4 BOCILLIN FL labeling (gel-based): 50-5000 µM, kanamycin 2000 µM or 5000 µM; for PBP4 BOCILLIN FL binding inhibition (gel-based) at low concentration: concentrations below 50 µM. The procedure:
A second, yet lower resolution, approach was used to verify the impact of 9314848 on PBP4 substrate binding in which the protein was preincubated with compound or control antibiotics then labeled with the BOCILLIN FL and resulting fluorescent labeled protein was visualized following gel electrophoresis.
(§4) The ability of putative PBP4 inhibitors to impact the active site of recombinant PBP4 was assessed using two previously established BOCILLIN-FL Penicillin (Penicillin V conjugated to BODIPY fluorescent dye) binding assays. First, fluorescence polarization assays were performed as previously described, but with minor modifications. Briefly, the indicated amount of the putative PBP4 inhibitor or control antibiotic was incubated with 1 µM recombinant B. subtilis PBP4 or S. aureus PBP2a in potassium phosphate buffer (40 mM K2HPO4 and 10 mM KH2PO4) for 1 h in black 96-well microtiter plates (Corning Life Sciences, Corning, NY, USA). Following incubation, 1 µM (final concentration) BOCILLIN FL penicillin was added, and the mixture was incubated for 30 min. BOCILLIN FL fluorescence polarization was measured at (495 nm excitation and 545 nm emission) in a SpectraMax M5 multimode plate reader (Molecular Devices, San Jose, CA, USA). All assays were repeated at least 8 times, averaged, and values falling outside of 2 standard deviations were considered outliers. The resulting data were plotted as percentage BOCILLIN FL binding inhibition = (T/U) × 100; T = FL polarization of ((PBP4+ BOCILLIN FL) − (PBP4+ BOCILLIN FL + inhibitor compound)), U = FL polarization of ((PBP4 + BOCILLIN FL) − (BOCILLIN FL)). Second, gel electrophoresis and fluorescence detection was used to measure BOCILLIN FL labeling of PBP4 treated with the known PBP4 inhibitor cefoxitin (positive control), kanamycin (negative control) or 9314848 (test compound), as previously described but with minor modifications. Briefly, 1 µM of recombinant PBP4 was mixed with 0, 50, 500, 2000, or 5000 µM 9314848 or control antibiotic in 50 mM phosphate buffer (pH 7.4) and incubated at 37 °C for 30 min. Next 40 μM of BOCILLIN FL was added to the reaction mixture and incubated for an additional 30 min at 37 °C. Reactions were stopped by adding 5× SDS-PAGE gel loading dye, heated at 100 °C for 3 min and separated by electrophoresis in 12% SDS-PAGE (2 h, 120 Volts). BOCILLIN FL labeled PBP4 was imaged at λ = 365 nm using a BioRad Gel Doc EZ Imaging system and the gel was then subsequently stained with Bio-safe Coomassie Brilliant Blue stain (BioRad, Hercules, CA, USA) to measure the amount of protein present in each reaction condition and analyzed using NIH-ImageJ software. The percent BOCILLIN FL binding was calculated by first normalizing the protein present in each reaction condition to that of untreated control and subsequently applying each reaction’s protein normalization factor to each reaction’s fluorescent signal. The percentage BOCILLIN FL binding inhibition was then calculated as the normalized band intensity of antibiotic/compound treated sample as compared to the control sample (PBP4 + BOCILLIN FL in the absence of compound).

Assay [8] concerns the target recombinant Bacillus subtilis PBP4 (Bacillus subtilis, UniProt P40750). As to the kind of experiment: BOCILLIN FL fluorescence polarization displacement assay, PBP4. The class given is binding. Conditions: for Effect of preincubation on BOCILLIN FL binding to PBP4 (fluorescence polarization): 50 µM, 1 µM PBP4. Here is the method: To more directly evaluate whether 9314848 is likely to affect PBP4 function, the compound’s ability to bind recombinant PBP4 was measured using BOCILLIN FL fluorescence polarization displacement assays. The premise for the assay is that the fluorescence polarization of the fluorescently labeled β-lactam, penicillin V (BOCILLIN FL), will increase upon binding to its cognate target (i.e., PBP4). Further, compounds that bind PBP4 and inhibit its function would impede BOCILLIN FL binding thereby allowing us to assess the protein binding affinity of 9314848 using a simple fluorescence reduction assay.
To determine whether the assay is amenable to measuring the binding properties of a compound that is known to bind PBP4 vs. a compound that is not expected to bind the protein we performed fluorescence polarization assays in which PBP4 was preincubated with either the β-lactam ampicillin, or the aminoglycoside kanamycin.
A dose response study was conducted (Figure 4B) in which PBP4 was preincubated with 0, 3.125, 6.25, 12.5, 25, or 50 µM of ampicillin, kanamycin, or 9314848.
as §4, with “First,” for “The ability of putative PBP4 inhibitors to impact the active site of recombinant PBP4 was assessed using two previously established BOCILLIN-FL Penicillin (Penicillin V conjugated to BODIPY fluorescent dye) binding assays. First,”, “All assays were repeated at least 8 times, averaged, and values falling outside of 2 standard deviations were considered outliers.” left out

This is an account of results in paper PMC9598407, “Identification of Staphylococcus aureus Penicillin Binding Protein 4 (PBP4) Inhibitors” (Antibiotics, 2022).

In brackets after ≈: the same amount, converted by molar mass.

Chain of recombinant PBP4 (P40750 22-624): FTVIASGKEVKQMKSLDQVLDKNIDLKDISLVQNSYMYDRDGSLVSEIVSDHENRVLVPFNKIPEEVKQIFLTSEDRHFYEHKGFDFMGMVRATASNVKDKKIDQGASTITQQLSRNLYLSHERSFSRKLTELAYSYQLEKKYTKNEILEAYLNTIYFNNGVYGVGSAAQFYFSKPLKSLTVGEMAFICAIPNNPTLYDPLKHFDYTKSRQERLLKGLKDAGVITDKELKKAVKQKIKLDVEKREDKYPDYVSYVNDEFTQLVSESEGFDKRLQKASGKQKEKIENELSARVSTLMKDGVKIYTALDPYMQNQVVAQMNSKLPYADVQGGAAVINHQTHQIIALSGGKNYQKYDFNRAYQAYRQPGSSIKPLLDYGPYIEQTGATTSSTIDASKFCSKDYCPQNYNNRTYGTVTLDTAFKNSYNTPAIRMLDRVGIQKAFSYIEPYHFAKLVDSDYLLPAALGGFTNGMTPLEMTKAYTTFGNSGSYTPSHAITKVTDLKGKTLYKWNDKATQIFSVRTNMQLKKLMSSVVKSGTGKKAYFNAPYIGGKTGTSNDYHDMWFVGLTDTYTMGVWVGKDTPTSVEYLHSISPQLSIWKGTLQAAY
Chain of recombinant Bacillus subtilis PBP4 (P40750 22-624): as above

Take `O=C(O)c1cn(C2CC2)c2cc(N3CCNCC3)c(F)cc2c1=O` [CIP, ciprofloxacin]: the MIC in assay [1] is 1 µg/mL (≈ 3.02 µM); in assay [2], 4 µg/mL (≈ 12.1 µM); in assay [3], 0.5 µg/mL (≈ 1.51 µM); in assay [4], 0.25 µg/mL (≈ 0.754 µM); in assay [5], 0.25 µg/mL (≈ 0.754 µM). In addition, the Minimum inhibitory concentration in assay [1] (strain USA300∆pbp4) worked out at 1 µg/mL (≈ 3.02 µM); in assay [2], 4 µg/mL (≈ 12.1 µM). The “Fold increase in resistance provided by PBP4” value in assay [2] is on record as ~ 4 fold.
In the case of `C[C@H]1COc2c(N3CCN(C)CC3)c(F)cc3c(=O)c(C(=O)O)cn1c23` [LEV, levofloxacin], the MIC in assay [1] is 0.5 µg/mL (≈ 1.38 µM); in assay [2], 1 µg/mL (≈ 2.77 µM); in assay [3] it was 0.5 µg/mL (≈ 1.38 µM); in assay [4] it was 0.25 µg/mL (≈ 0.692 µM); in assay [5], 0.25 µg/mL (≈ 0.692 µM); in assay [6] it was 1 µg/mL (≈ 2.77 µM).
As to `C[C@@H](O)[C@H]1C(=O)N2C(C(=O)O)=C(S[C@@H]3CN[C@H](C(=O)N(C)C)C3)[C@H](C)[C@H]12` [MER, meropenem], the MIC is 2 µg/mL (≈ 5.22 µM) in assay [1]; 4 µg/mL (≈ 10.4 µM) in assay [2]; 64 µg/mL (≈ 167 µM) in assay [3]; 1 µg/mL (≈ 2.61 µM) in assay [4]; 1 µg/mL (≈ 2.61 µM) in assay [5]; 4 µg/mL (≈ 10.4 µM) in assay [6]. Besides, the “Fold increase in resistance provided by PBP4” value in assay [2] turned out to be 2 fold. Further, the Minimum inhibitory concentration in assay [2] turned out to be 4 µg/mL (≈ 10.4 µM).
Consider `CN(C)c1ccc(O)c2c1C[C@H]1C[C@H]3[C@H](N(C)C)C(O)=C(C(N)=O)C(=O)[C@@]3(O)C(O)=C1C2=O` [MIN, minocycline], for which the MIC in assay [1], in assay [2], in assay [3], in assay [4], in assay [5] and in assay [6] was 0.5 µg/mL (≈ 1.09 µM) throughout.
With `CC1(C)S[C@@H]2[C@H](NC(=O)[C@H](N)c3ccccc3)C(=O)N2[C@H]1C(=O)O` [ampicillin], in assay [7], the “Effect of preincubation on PBP4 BOCILLIN FL labeling (gel-based)” value (shortened to “Effect of preincubation … (gel-based)”) is given as “reduced the protein’s ability to bind the fluorescent substrate” and the “PBP4 BOCILLIN FL binding inhibition (gel-based) at low concentration” value is “did not reproducibly demonstrate BOCILLIN FL binding inhibition”. The “Effect of preincubation on BOCILLIN FL binding to PBP4 (fluorescence polarization)” value in assay [8] was “limited BOCILLIN FL binding”.
`CO[C@@]1(NC(=O)Cc2cccs2)C(=O)N2C(C(=O)O)=C(COC(N)=O)CS[C@@H]21` [cefoxitin]: in assay [7], the “Effect of preincubation … (gel-based)” value was “reduced the protein’s ability to bind the fluorescent substrate” and the “PBP4 BOCILLIN FL binding inhibition (gel-based) at low concentration” value is “did not reproducibly demonstrate BOCILLIN FL binding inhibition”.
For the molecule `NC[C@H]1O[C@H](O[C@H]2[C@H](O)[C@@H](O[C@H]3O[C@H](CO)[C@@H](O)[C@H](N)[C@H]3O)[C@H](N)C[C@@H]2N)[C@H](O)[C@@H](O)[C@@H]1O` [kanamycin], in assay [7], the “Effect of preincubation … (gel-based)” value is “did not significantly impact”. For the same molecule, in assay [8] (0, 3.125, 6.25, 12.5, 25, or 50 µM), the “PBP4 BOCILLIN FL binding inhibition, dose response” value is “no inhibitory effect”. In addition, in assay [8], the “Effect of preincubation on BOCILLIN FL binding to PBP4 (fluorescence polarization)” value is reported as “had no impact on BOCILLIN FL binding”.
In the case of colistin, the Minimum inhibitory concentration in assay [2] and in assay [3] (strain CRB) was 128 µg/mL in each case.
